Where two headings read alike, the source gives them in different places.
Key:
[1] = tested on: B. subtilis ATCC-6633; test: Antibacterial activity, MIC by double-microdilution; type: cell-based
Protocol: (§1) Comparative antibacterial activities were determined in two representative strains of Gram-negative (E. coli R477-100) and Gram-positive (B. subtilis ATCC-6633) bacteria, by measuring the MIC values using the double-microdilution method according to the National Committee for Clinical Laboratory Standards (NCCLS) (NCCLS. National Committee for Clinical Laboratory Standards, Performance standards for antimicrobial susceptibility testing. Fifth information supplement: Approved Standard M100-S5; Villanova, Pa.: NCCLS, 1994.).
(§2) In all biological tests, all AGs were in their sulfate salt forms, and the concentrations refer to the free amine form of each AG. The eukaryotic and prokaryotic half-maximal-inhibition values (IC50^Euk and IC50^Pro) were quantified in coupled transcription/translation assays by using active luciferase detection as previously described. Minimal inhibitory concentration (MIC) values were determined by using the double-microdilution method.

[2] = tested on: E. coli R477-100; test: as above; type: cell-based; details: for MIC: Escherichia coli, R477100, read-out: Antibacterial Activity MIC E. Coli R 477/100
Protocol: as §1, §2

[3] = tested on: nonsense constructs R3X and R245X (USH1), Q70X (HS), G542X (CF); test: Dual luciferase in vitro readthrough assay, p2Luc plasmids, TNT Reticulocyte Lysate; type: biochemical; details: R3X nonsense mutation construct (USH1), FIG. 10
Description: DNA fragments derived from PCDH15, CFTR, and IDUA cDNAs, including the tested nonsense mutation or the corresponding wild type (wt) codon, and four to six upstream and downstream flanking codons were created by annealing the following pairs of complementary oligonucleotides:
Fragments were inserted in frame into the polylinker of the p2Luc plasmid between either BamHI and SacI (p.R3X and p.R245X) or SalI and SacI (all the rest) restriction sites. For the in vitro readthrough assays, the obtained plasmids, with addition of the tested aminoglycosides were transcribed and translated using the TNT Reticulocyte Lysate Quick Coupled Transcription/Translation System. Luciferase activity was determined after 90 minutes of incubation at 30° C., using the Dual Luciferase Reporter Assay System (Promega™).
Activity was tested using a collection of dual-luciferase reporter plasmids, containing different sequence contests around premature stop codons derived from the PCDH15, CFTR, and IDUA genes that underline USH1, CF, and MPS I-H, respectively. The exemplified nonsense reporters were R3X and R245X for USH1, G542X for CF, and Q70X for MPS I-H.

[4] = tested on: cystic fibrosis G542X nonsense mutation; test: Cell-free nonsense mutation suppression dose-response assay, firefly/renilla; type: biochemical, rabbit; details: 0-50 μM, FIGS. 4-7
Protocol: The plasmids were transcribed in vitro and translated using rabbit reticulocytes (TNT mix) and then tested for the expression levels of the firefly and renilla luciferases.
WT plasmids expressed both firefly and renilla luciferases while mutant plasmids expressed only the renilla luciferase due to the stop codon found in the inserted sequence. The readthrough assays were conducted for the tested compounds and the controls by adding the compounds to the in vitro transcription/translation reaction mixture. In case the compounds exerted suppression of the premature nonsense/stop codon mutation, the firefly luciferase was expressed and a fold-change in its expression was observed.
Readthrough activity of Cystic Fibrosis (CF) mutation G542X was tested using the compounds presented in Table 1, and the mutation suppression was calculated based on firefly/renilla expression ratio values, and normalized with respect to the expression level of the WT and the control sample (no tested compound).

[5] = Bacillus subtilis, ATCC6633, Table 4, read-out: Antibacterial Activity MIC B. Subtilis ATCC6633
[6] = Bacillus subtilis, ATCC6633, Table 6, read-out: Antibacterial activity MIC B. subtilis ATCC6633

| Molecule | MIC [1, 5] [µM] | MIC [2] | G542X mutation suppression (readthrough) activity, dose-response [4] | also measured |
| --- | --- | --- | --- | --- |
| gentamicin [reference compound] |  |  |  | MIC ([1]; Table 4, read-out: Antibacterial Activity MIC B. Subtilis ATCC6633): <0.75 µM; Antibacterial Activity MIC E. Coli R 477/100 ([2]; Table 4): 6 µM |
| N[C@H]1[C@@H](O[C@H]2[C@H](O)[C@@H](O)[C@H](N)C[C@@H]2N)O[C@H]([C@@H](O)CO)[C@@H](O)[C@@H]1O [NB155, (2R, 3S, 4R, 5R, 6S)-5-amino-6-(((1R, 2R, 3S, 4R, 6S)-4,6-diamino-2,3-dihydroxycyclohexyl)oxy)-2-((S)-1,2-dihydroxyethyl)tetrahydro-2H-pyran-3,4-diol] | > 375 | > 375 µM |  | in vitro stop codon suppression (readthrough) activity compared with Compound 1 [3]: somewhat higher activity of NB155 to that of Compound 1 |
| CC(C)CN[C@@H]1CC(N)[C@@H](O[C@H]2OC([C@@H](C)O)[C@@H](O)C(O)C2N)C(O)C1O (stereo in doubt) [NB144] |  |  | notable dose-dependent readthrough activity |  |
| C[C@@H](O)C1O[C@H](O[C@@H]2C(N)C[C@@H](NCc3ccccc3)C(O)C2O)C(N)C(O)[C@@H]1O (stereo in doubt) [NB145] |  |  | notable dose-dependent readthrough activity |  |
| C[C@H](N)[C@H]1O[C@@H](OC2C(O)[C@H](N)CC(N)[C@H]2O[C@H]2OC(CO)[C@@H](O)C(O)C2N)C(O)C1O (some centres unmarked) [NB118, reference compound] |  | 2660 µg/mL |  | MIC [1, 6]: 83 µg/mL |
| C[C@@H](O)C1O[C@H](O[C@@H]2C(N)C[C@@H](N)C(O)C2O[C@@H]2O[C@H](CNC(=N)N)C(O)C2O)C(N)C(O)[C@@H]1O (stereo in doubt) [NB151] |  |  | notable dose-dependent readthrough activity |  |
| NC[C@H]1O[C@@H](OC2C(O)[C@H](N)CC(N)[C@H]2O[C@H]2OC(CO)[C@@H](O)C(O)C2N)C(O)C1O (some centres unmarked) [NB30, reference compound] |  | 790 µg/mL |  | MIC [1, 6]: 100 µg/mL |
| N[C@H]1[C@@H](O[C@H]2[C@H](O)[C@@H](O)[C@H](N)C[C@@H]2N)O[C@H]([C@H](O)CO)[C@@H](O)[C@@H]1O [NB153, (2R, 3S, 4R, 5R, 6S)-5-amino-6-(((1R, 2R, 3S, 4R, 6S)-4,6-diamino-2,3-dihydroxycyclohexyl)oxy)-2-((R)-1,2-dihydroxyethyl)tetrahydro-2H-pyran-3,4-diol] | 311 | > 311 µM |  | in vitro stop codon suppression (readthrough) activity compared with Compound 1 [3]: dramatically increases its in vitro readthrough activity |
| CC(O)C1O[C@H](O[C@@H]2C(N)C[C@@H](N)C(O)C2O[C@@H]2O[C@H]([C@H](C)N)C(O)C2O)C(N)C(O)[C@@H]1O (single isomer, unassigned) [NB124, reference compound] | 156 |  |  |  |
| C[C@@H](O)C1O[C@H](O[C@@H]2C(N)C[C@@H](NC(=N)N)C(O)[C@H]2O)C(N)C(O)[C@@H]1O (stereo in doubt) [NB150] |  |  | notable dose-dependent readthrough activity |  |
